# Assays:
# [1] = system: mechanical nociceptive threshold; settings: dose-response studies (Khasar et al., 1999b); cited from earlier work
# ERK1/2 = experiment: Epinephrine-stimulated ERK1/2 phosphorylation in cultured rat DRG neurons (Western analysis); format: cell-based
# Protocol: Trypsin was inactivated by adding 100 μg/ml soybean trypsin inhibitor and 2.5 mg/ml MgSO4. The cells were centrifuged at 300×g for 5 min and resuspended culture media containing minimal essential medium (MEM) supplemented with 10% heat-inactivated fetal calf serum, 1×MEM vitamins, and 1000 U/ml each of penicillin and streptomycin. The culture was enriched for neurons by preplating on 100 mm culture dishes pretreated with 0.1 mg/ml poly-DL-ornithine in 15 mM sodium borate buffer. After culture for 15-20 hr, the loosely attached neuronal cells were collected and plated for 3 hr on six-well plates coated with 0.1 mg/ml poly-DL-ornithine and 1 mg/ml laminin.
# After drug treatment, cells from neuron-enriched DRG cultures were collected and centrifuged at 300×g for 5 min at 4° C. […] Blots were incubated with anti-phospho-p42/44 MAP kinase antibody (diluted 1:500 in blocking buffer) overnight at 4° C. Blots were rinsed three times in PBS-T and incubated in blocking buffer containing HRP-conjugated goat anti-rabbit IgG (diluted 1:1000; Boehringer Mannheim, Indianapolis, Ind.) for 1 hr at 27° C. Immunoreactive bands were visualized by enhanced chemiluminescence (Amersham Pharmacia Biotech, Piscataway, N.J.). The membranes were then stripped of antibodies by incubation in 200 mM NaOH for 20 min at 27° C. […] After three washes in PBS-T, blots were incubated with HRP-conjugated goat anti-rabbit IgG (diluted 1:1000; Boehringer Mannheim) for 1 hr at 27° C., and immunoreactive bands were visualized by enhanced chemiluminescence and autoradiography. […] Data were normalized by dividing values obtained for phospho-ERK1 and phospho-ERK2 immunoreactivity by the value obtained for total ERK1 immunoreactivity for each sample.
# [2] = system: mechanical nociceptive threshold; settings: injected intradermally (Khasar et al., 1999b); cited from earlier work
# [3] = system: mechanical nociceptive threshold; settings: epinephrine 100 ng, 3.82 and 4.54 N/mm^2
# [4] = system: mechanical nociceptive threshold; experiment: Epinephrine-induced mechanical hyperalgesia, Randall-Selitto paw-withdrawal test (Example 1); settings: rat, in vivo
# Description: The nociceptive flexion reflex (Randall-Selitto paw-withdrawal test) was quantified with a Basile Analge-symeter (Stoelting, Chicago, Ill.), which applies a linearly increasing mechanical force to the dorsum of the rat's hindpaw. The mechanical nociceptive threshold was defined as the force in grams at which the rat withdrew its paw. […] They were allowed to crawl into individual cylindrical Perspex blocks and were lightly restrained there by closing both ends of the cylinder. […] The rats were allowed to acclimatize to the restrainer for 5-10 min, after which the hindpaws were exposed to the test stimulus. Three readings were taken at 5 min intervals, and their mean was considered the baseline threshold. After each drug administration, mechanical paw-withdrawal thresholds were determined again as the mean of three readings taken 20, 25, and 30 min after injection.
# Inhibitors were diluted with distilled water before intra-dermal injections into the paw using a 10 μl microsyringe (Hamilton, Reno, Nev.). Injections of peptides (1 μg/2.5 μl) were always preceded by injection of distilled water (2.5 μl) to produce hypo-osmotic shock. […] Paw-withdrawal thresholds were measured again 10, 15, and 20 min after injecting the test agent. The mean of the paw-withdrawal thresholds obtained at these three times was then taken as the mechanical nociceptive threshold at the dose of the test agent used. The effect of each dose a test agent was calculated as the percentage change from baseline.
# [5] = system: mechanical nociceptive threshold; experiment: Epinephrine-induced hyperalgesia in gonad-intact and gonadectomized male and female rats (Example 2); settings: for absolute decrease in threshold after epinephrine: n=18
# Protocol: The nociceptive flexion reflex was quantified using the Randall-Selitto paw pressure device (Analgesymeter, Stoetling, Chicago, Ill., USA), which applies a linearly increasing mechanical force to the dorsum of the rat's hind paw. The mechanical nociceptive threshold was defined as the force in grams at which the rat withdrew its paw. […] Baseline paw-withdrawal threshold was defined as the mean of six readings before test agents were injected. […] Each group of rats was treated with only one agonist and/or antagonist injected peripherally by the intradermal route. […] All behavioural testing was done between 10.00 and 16.00 h. […] The protein kinase inhibitor was separated from the distilled water by drawing up a small air bubble (<1 μL) into the syringe after drawing up the protein kinase inhibitor but before drawing up the distilled water.
# A stock solution of PGE2 (4 mg/mL) was made by dissolving it in 10% ethanol in normal saline; further dilution to 100 ng was made by addition of saline. Final concentration of ethanol was <10%. […] Stock solutions (1 μg/μL) of inhibitors were stored at −20° C. […] Inhibitors were injected at a concentration of 1 μg/2.5 μL.
smiles,measurement,setting,value
CNC[C@H](O)c1ccc(O)c(O)c1 [epinephrine],dose producing maximal hyperalgesia,[1],100 ng
same,ERK1/2 phosphorylation (representative Western blot),ERK1/2,stimulation
same,concentration at which effect on ERK phosphorylation appeared maximal,ERK1/2,1 µM
same,increase of phospho-ERK immunoreactivity over basal level,ERK1/2,~1.7 fold
same,time after which ERK phosphorylation returned to basal levels,ERK1/2,60 min
same,time at which epinephrine-evoked ERK phosphorylation was greatest,ERK1/2,5 min
same,Emax,"ERK1/2; Rattus norvegicus, DRG neuron, 5 min, read-out: maximal response relative to response to NGF",30 to 50%
same,ED50 for lowering the nociceptive threshold,[2],~20 ng
same,"response to VFH stimulation, wild-type vs PKCε mutant",[3]; female mice,similar
same,epinephrine-induced change in nociceptive response in PKCε-null vs wild-type,[3]; male mice,significantly less
same,decrease in mechanical nociceptive thresholds,[4],~35%
same,change in mechanical nociceptive threshold over dose range,"[5]; epinephrine 1-1000 ng intradermal, normal male and female rats",dose-dependent decrease
same,"decrease in threshold after epinephrine, gonadectomized vs gonad-intact","[5]; female rats, epinephrine 100 ng",greater
same,absolute decrease in threshold after epinephrine,[5]; female rats,72.7 ± 0.9 g
same,"decrease in paw-withdrawal threshold produced by epinephrine, gonadectomized vs gonad-intact","[5]; male rats, epinephrine 100 ng",no significant difference
same,absolute decrease in threshold after epinephrine,[5]; male rats,63.7 ± 0.9 g

# From patent publication US20030008807A1, “Novel signaling pathway for the production of inflammatory pain and neuropathy” (The Regents of the University of California, priority 2001, published 2003)
